{"source": "patent US20240245696A1", "about": "“INHIBITORS OF DNA PK AND USES THEREOF” (BioVentures, LLC, priority 2017, published 2024)", "system": "PD-1", "assay": "qPCR of PD-1 expression in stimulated Jurkat cells", "assay_type": "cell-based, human", "conditions": "PHA+PMA stimulation", "procedure": "Evaluation of PD-1 and IL-2 expression: The effect of NU7441 on the expression of PD-1, a protein with immunosuppressant function, and IL-2 was examined in Jurkat cells following stimulation with PHA+PMA and treatment with the inhibitor NU7441. qPCR analysis was performed using primers specific for PD1 and IL-2 sequences.", "data": [{"smiles": "O=c1cc(N2CCOCC2)oc2c(-c3cccc4c3sc3ccccc34)cccc12", "note": "[NU7441]", "values": [{"measurement": "expression level of PD-1", "value": "did not alter"}]}]}
